US12385017B2, “Acute respiratory distress syndrome therapeutic agent” (LTT Bio-Pharma Co., Ltd., priority 2015, dated 2025)
Like-named read-outs stand apart in the source and are kept apart here.

Assays:
[1] = system: CLP-induced systemic inflammation; experiment: CLP-induced systemic inflammation (plasma inflammatory cytokines); format: in vivo, mouse; settings: male ICR mice, drug once before CLP, plasma 8 hours after CLP
Description: (§1) A mouse was anesthetized with pentobarbital (10 mg/kg, intraperitoneally) and a small abdominal midline incision was made to expose the cecum thereof. Subsequently, the cecum was ligated at approximately 2 cm with a silk thread and punctured twice with an 18 G needle (manufactured by Terumo Corporation). Then, the abdomen was closed.
Sham mice (sham operation group) were subjected to the same operation except the ligation and puncture of the cecum. […]
The levels of BUN and creatinine in blood were measured by using a DRI-CHEM slide and LabAssay creatinine, respectively, according to the protocols. The level of inflammatory cytokines in plasma was measured by an Elisa kit according to the protocol.
A CLP operation or a sham operation was performed on male ICR mice.
Drugs were administered once before the CLP operation or the sham operation. […] Sivelestat (mg/kg) was intraperitoneally administered. EBD (Evans blue dye) (30 mg/kg) was administered intravenously 8 hours after the CLP operation. Plasma samples were prepared and the level of inflammatory cytokines in plasma was measured.
A CLP operation or a sham operation was performed on a male ICR mouse. […] A plasma sample was prepared 8 hours after the CLP investigation and the levels of BUN and creatinine (Test A) and the level of inflammatory cytokines (Test B) were measured.
A CLP operation or a sham operation was performed on a male ICR mouse. NAC (mg/kg) was administered intraperitoneally or unmodified SOD (kU/kg) was administered intravenously, once before the CLP operation. A plasma sample was prepared 8 hours after the CLP operation and the levels of BUN and creatinine (Test A) and the level of inflammatory cytokines (Test B) were measured.

[2] = system: lipopolysaccharide (LPS)-induced lung injury
Description: A mouse was anesthetized with isoflurane and 1 mg/kg LPS (in 0.9% NaCl) was administered thereto intratracheally once using a micropipette (P200). […] In the case of sivelestat, 10 or 100 mg/kg of sivelestat (in 0.9% NaCl) was administered intraperitoneally using a 21 G needle.
(§2) For a quantitative examination of the permeability of an organ, Evans blue (EBD) (30 mg/kg) was administered to the mouse intravenously 2 hours before sacrificing the mouse. Tissue (lung, liver, and kidney) specimens were cut into pieces and incubated with a formaldehyde solution for 24 hours at 60° C. The specimens were centrifuged to obtain supernatants and the quantity of EBD was determined by using absorbance at 620 nm of the specimens.
BALF was collected by inserting a cannula into a trachea and performing lavage twice with 1 mL of 50 U/mL heparin (in sterile 0.9% NaCl). Usually, about 1.8 mL of BALF was collected from each mouse. The amount of proteins in BALF was determined by a Bradford assay. The level of inflammatory cytokines was determined by the Elisa kit as described above.
A tissue specimen was fixed in 10% neutral buffered formalin for 24 hours and then embedded in paraffin before being cut into a section 4 μm thick. The section was stained firstly with Mayer's hematoxylin and secondly with 1% alcoholic eosin solution (H&E staining). The specimen was mounted with malinol (mounting medium) and scanned using a NanoZoomer-XR digital slide scanner (Hamamatsu Photonics K.K.).
All the scanned images were analyzed using NDP-view2 software (Hamamatsu Photonics K.K.) and Image J software.
LPS (1 mg/kg) or vehicle (control) was administered once into a trachea of a male ICR mouse.
ESD (Evans blue dye) (30 mg/kg) was injected intravenously 6 hours after a CLP operation. Two hours later, ESD was extracted from the lung and liver and the amount thereof was measured (Test A).
A section of the lung tissue was prepared 24 hours after the LPS administration and was subjected to a histopathological examination (H&E staining) (Test B). The lesion area was determined by ImageJ software (Test C). BALF was prepared 48 hours after the LPS administration and the levels of protein (Test D) and inflammatory cytokines (Test E) were determined.

[3] = system: mechanical ventilator (MV)-induced lung injury; experiment: Mechanical ventilator (MV)-induced lung injury and change of lung mechanics; format: in vivo, mouse; settings: male ICR mice
Description: A mechanical ventilator for small animals was used to induce ventilator-induced lung injury (VILI). After a mouse was anesthetized with pentobarbital (10 mg/kg, intraperitoneally), tracheotomy was performed and an 8 mm metal tube was inserted into the trachea thereof. The mouse was mechanically ventilated with a tidal volume of 17.5 mL/kg, a positive end-expiratory pressure of 0 cm H2O, and a rate of 150 breaths/min.
Total respiratory elastance was measured every 30 minutes for 120 minutes by a snapshot technique.
The data were analyzed by using FlexiVent software (version 5.3 SCIREQ).
as §2
Firstly, the wet weight of a lung was measured to determine a wet-to-dry weight ratio of the lung. Then, the lung was dried at 60° C. overnight and reweighed to obtain the dry weight thereof.
A tissue specimen was fixed in 10% neutral buffered formalin for 24 hours and then embedded in paraffin before being cut into a section 4 μm thick. […]
All the scanned images were analyzed using NDP-view2 software (Hamamatsu Photonics K.K.) and Image J software. […]
EBD (Evans blue dye) (30 mg/kg) was simultaneously administered intravenously, extracted from the lung 2 hours after the MV treatment, and measured (Test A).
The wet-to-dry weight ratio of the lung was determined 2 hours after the MV treatment (Test B). […]
The lesion area was determined by ImageJ software (Test D).
Total respiratory elastance was measured every 30 minutes for 120 minutes (Test E). […]
The wet-to-dry weight ratio of the lung was determined 2 hours after the MV treatment (Tests A and C). Total respiratory elastance was measured every 30 minutes for 120 minutes (Tests B and D).

[4] = system: mice subjected to cecal ligation and puncture technique (CLP technique); settings: male ICR mice
Description: as §1
(§3) Sham mice (sham operation group) were subjected to the same operation except the ligation and puncture of the cecum.

[5] = system: CLP-induced multiple organ failure; experiment: CLP-induced multiple organ failure (Evans blue vascular permeability, BUN, creatinine); format: in vivo, mouse; settings: male ICR mice, drug once before CLP, plasma 8 hours after CLP
Description: as §1, §3
A mouse was anesthetized with isoflurane and 1 mg/kg LPS (in 0.9% NaCl) was administered thereto intratracheally once using a micropipette (P200). […]
as §2, with “Tissue (lung, liver, and kidney) specimens were cut into pieces and incubated with a formaldehyde solution for 24 hours at 60° C.” left out
The levels of BUN and creatinine in blood were measured by using a DRI-CHEM slide and LabAssay creatinine, respectively, according to the protocols. The level of inflammatory cytokines in plasma was measured by an Elisa kit according to the protocol. […]
Drugs were administered once before the CLP operation or the sham operation. […] Two hours later, EBD was extracted from the kidney and liver and measured. […]

[6] = system: reactive oxygen species (ROS); experiment: In vivo imaging of reactive oxygen species (ROS), CLP model; design: species or system mouse; settings: drug once before CLP, L-012 75 mg/kg 4 hours after the CLP operation
Description: In the case of the CLP model, the mouse was euthanized 2 minutes after injection of L-012, subjected to abdominal midline incision, and imaged (five-minute intervals).
Male ICR mice were subjected to a CLP operation. Dexamethasone (200 μg/mouse) was administered intravenously once before the CLP operation (Tests A and C). Sivelestat (100 mg/kg) was administered intraperitoneally (Tests B and D). […] The sum intensity of ROS was determined by SlideBook6 software (Tests C and D).

[7] = system: reactive oxygen species (ROS)
Description: Measurement of reactive oxygen species (ROS) in a mouse was performed by in vivo imaging analysis with some modifications.
An imaging system (Lumazone, in vivo imaging system, SHOSHIN EM, Okazaki, Japan) including a chamber equipped with an electron multiplying CCD camera was used. L-012 (in saline), which is a luminescent probe, was administered to the mouse intravenously at 75 mg/kg.
In the case of the LPS and MV models, the mouse was euthanized 5 minutes after injection of L-012, and the lung thereof was anatomized promptly and imaged (five-minute intervals).
The data were analyzed by using SlideBook6 software (Intelligent Imaging Innovations, Inc., Denver, CO).
CLP operation (Tests A and B), LPS administration (Tests C and D), and MV treatment (Tests E and F) were performed as described above. […] A luminescent probe (L-012) (75 mg/kg) was administered 4 hours after the CLP operation, 6 hours after the LPS administration, and 2 hours after the MV treatment. An abdominal cavity (Test A) or a lung (Tests C and E) of the mouse was imaged using a Lumazone in vivo imaging system. The sum intensity of reactive oxygen species (ROS) was determined by Slide Book6 software (Tests B, D, and F).

[8] = BALF 48 hours after the LPS administration (FIG. 4E)

| Compound | IL-6 level in plasma [1] | TNF-α level in plasma [1] | protein in BALF ([2]; BALF 48 hours after the LPS administration (FIG. 4D)) | IL-6 in BALF [2, 8] | IL-10 in BALF [2, 8] | TNF-α in BALF [2, 8] | histopathological examination of lung tissue (H&E staining) ([2]; lung section 24 hours after the LPS administration (FIG. 4B)) | lesion area of lung (ImageJ) ([2]; lung section 24 hours after the LPS administration (FIG. 4C)) | lung edema (wet-to-dry weight ratio of the lung) ([3]; drug once immediately before MV, 2 hours after the MV treatment) | lung injury (histopathological examination, H&E staining; lesion area) ([3]; lung section 2 hours after the MV treatment (FIG. 5C, D)) | lung elastance (total respiratory elastance) ([3]; measured every 30 minutes for 120 minutes) | survival rate ([4]; administration 1, 12, 24, and 48 hours after the CLP operation (FIG. 1B)) | survival rate ([4]; administration immediately before the CLP operation and 12, 24, and 48 hours after (FIG. 1A)) | BUN (blood urea nitrogen) level [5] | creatinine level [5] | reactive oxygen species in the abdominal cavity (sum intensity, L-012) [6] | reactive oxygen species in the lung (sum intensity, L-012) ([7]; LPS, PC-SOD i.v. once before LPS, L-012 6 hours after the LPS administration) | reactive oxygen species in the lung (sum intensity, L-012) ([7]; MV, PC-SOD i.v. once before MV, L-012 2 hours after the MV treatment) |
| --- | --- | --- | --- | --- | --- | --- | --- | --- | --- | --- | --- | --- | --- | --- | --- | --- | --- | --- |
| CC(C)(C)C(=O)Oc1ccc(S(=O)(=O)Nc2ccccc2C(=O)NCC(=O)O)cc1 [sivelestat, sivelestat sodium hydrate, reference compound] | failed in suppressing an increase | failed in suppressing an increase |  |  |  |  |  |  |  |  |  |  |  |  |  |  |  |  |
| lecithinized superoxide dismutase [PC-SOD] | suppressed an increase | suppressed an increase | suppressed an increase of protein | suppressed an increase | suppressed an increase | suppressed an increase | suppressed alveolar hemorrhage, leukocyte infiltration, and lung interstitial edema | reduced a lung disorder area | suppressed lung edema | suppressed lung injury | suppressed an increase in lung elastance | increased the survival rate | increased the survival rate in a dose-dependent manner | suppressed an increase | suppressed an increase | suppressed an increase of reactive oxygen species | suppressed an increase of reactive oxygen species | suppressed an increase of reactive oxygen species |
